One may read the pIC50 as −log10 of the IC50, conventionally taken in molar units.

These results are taken from patent US20100197591A1, “4-AMINO-7,8-DIHYDROPYRIDO[4,3-d]PYRIMIDIN-5(6H)-ONE DERIVATIVES” (pfizer Inc, priority 2009, published 2010).

The target in experiment [1] is T1, Human full-length diacylglycerol:acylCoA acyltransferase 1 (DGAT-1) (Homo sapiens, UniProt O75907).
T1 construct: Human full-length diacylglycerol:acylCoA acyltransferase 1 (DGAT-1) was expressed in Sf9 insect cells; made in house; host or cells: Sf9 insect cells (baculovirus); crude membrane/microsome fraction
T1 sequence (O75907 1-488): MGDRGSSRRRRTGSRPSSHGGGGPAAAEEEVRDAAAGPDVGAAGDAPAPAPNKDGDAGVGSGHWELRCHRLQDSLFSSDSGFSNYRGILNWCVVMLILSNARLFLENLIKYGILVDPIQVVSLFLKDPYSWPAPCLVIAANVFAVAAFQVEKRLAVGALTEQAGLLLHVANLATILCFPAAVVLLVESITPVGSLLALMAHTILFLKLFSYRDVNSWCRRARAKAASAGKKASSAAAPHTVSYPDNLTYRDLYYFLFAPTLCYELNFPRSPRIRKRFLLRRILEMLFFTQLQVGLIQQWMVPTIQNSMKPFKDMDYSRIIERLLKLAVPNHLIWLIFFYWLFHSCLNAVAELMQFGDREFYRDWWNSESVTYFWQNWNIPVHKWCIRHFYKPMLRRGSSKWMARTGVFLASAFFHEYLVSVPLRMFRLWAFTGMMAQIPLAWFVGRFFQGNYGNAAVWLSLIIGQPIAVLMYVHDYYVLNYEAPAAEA
As to the kind of experiment: DGAT-1 Reduced Microsome Multidose Assay, G7329B Human IC50. The note with it: crude membrane fraction of Sf9 cells expressing human DGAT-1; [14C]decanoylCoA; apparent IC50, average where tested more than once. The format is biochemical. The method, then:
(§1) Human full-length diacylglycerol:acylCoA acyltransferase 1 (DGAT-1) was expressed in Sf9 insect cells which are then lysed and a crude membrane fraction (105,000×g pellet) was prepared. The DGAT-1 gene is a human DGAT-1 gene described in J Biol Chem 273:26765 (1998) and U.S. Pat. No. 6,100,077.
(§2) In vitro inhibition of DGAT-1 was measured using a modification, further described below, of the assay methodology described in U.S. Pat. No. 6,994,956 B2.
(§3) The cells were cultured as follows. Sf9 cells (20 L) were infected with 4 mL of DGAT-1 Baculovirus Infected Insect Cells (BIIC) for 72 hours in a Wave Bioreactor System 20/50P (Wave Biotec/GE Healthcare).
Crude DGAT-1 microsomes were prepared as follows. Cell pellets were washed once with ice-cold Dulbecco's phosphate-buffered saline. Cells were collected in tabletop centrifuge (Beckman GS-6KR), 15 minutes, 2000×g, 4° C. Twenty (20) mL of ice-cold Microsome Buffer (MB) was added per 5 g of cell pellet. The suspension was passed through a microfluidizer 3 times (18K psi). […] The microsome concentration was determined using Bio-Rad Protein DC Protein Assay. […]
The Microsome Buffer, used for microsome preparation, was prepared by conventional means and contained 125 mM sucrose, 3 mM imidazole, 0.2 μg/mL aprotinin, 0.2 μg/mL leupeptin and 5 mM dithiothreitol (Cleland's reagent), DGAT-1 activity was measured in 384-well format in a total assay volume of 25 μl that contained, Hepes buffer (50 mM, pH 7.5), MgCl2 (10 mM), bovine serum albumin (0.6 mg/ml), [^14C]decanoylCoA (20 μM, 58 Ci/mol) and membranes (25 μg/ml) into which 1,2 dioleoyl-sn-glycerol (75 μM) in acetone has already been incorporated. […]
Reaction mixtures were neutralized by the addition of 15 μl of tris(hydroxy-methyl)aminomethane (1M, pH 8.0) and then mixed by trituration with 37.5 μl of Microscint™-E (Perkin Elmer). Plates contents were allowed to partition for 15 to 30 min before ^14C was measured in a scintillation spectrometer (Wallac Microbeta Trilux 1450-030 liquid scintillation counter 12 detector in the top-count DPM mode). […]

The target in experiment [2] is T1, Human full-length diacylglycerol:acylCoA acyltransferase 1 (DGAT-1). As to the kind of experiment: DGAT-1 Reduced Microsome Multidose Assay, G7329E Human IC50. The format is biochemical. The note with it: crude membrane fraction of Sf9 cells expressing human DGAT-1; [14C]decanoylCoA; apparent IC50, average where tested more than once. Here is the method: as §1, §2, §3
Crude DGAT-1 microsomes were prepared as follows. Cell pellets were washed once with ice-cold Dulbecco's phosphate-buffered saline. Cells were collected in tabletop centrifuge (Beckman GS-6KR), 15 minutes, 2000×g, 4° C. Twenty (20) mL of ice-cold Microsome Buffer (MB) was added per 5 g of cell pellet. The suspension was passed through a microfluidizer 3 times (18K psi). The lysate was transferred to centrifuge tubes and centrifuged for 20 minutes at 5000×g (Beckman-Coulter, Inc. Allegra® 64R High-Speed Refrigerated Benchtop Centrifuge, F0650 rotor) at 4° C. The supernatant was transferred to ultracentrifuge tubes and centrifuged at 125,000×g for 1 hour in a Beckman Ti-45 rotor, 4° C. The supernatant fluid was discarded. The pellet was resuspended in 70 mL of MB by sonication. The microsome concentration was determined using Bio-Rad Protein DC Protein Assay. The microsomes were filter sterilized with a 0.22 μm filter. The samples were portioned, flash frozen and stored at −80° C.
The Microsome Buffer, used for microsome preparation, was prepared by conventional means and contained 125 mM sucrose, 3 mM imidazole, 0.2 μg/mL aprotinin, 0.2 μg/mL leupeptin and 5 mM dithiothreitol (Cleland's reagent), DGAT-1 activity was measured in 384-well format in a total assay volume of 25 μl that contained, Hepes buffer (50 mM, pH 7.5), MgCl2 (10 mM), bovine serum albumin (0.6 mg/ml), [^14C]decanoylCoA (20 μM, 58 Ci/mol) and membranes (25 μg/ml) into which 1,2 dioleoyl-sn-glycerol (75 μM) in acetone has already been incorporated. Inhibitors in DMSO were pre-incubated with membranes before initiating the DGAT-1 reaction by the addition of decanoylCoA. […] The DMSO concentration was 2.5%. The inhibitors were present at a range of eight concentrations to generate an apparent IC50 for each compound. The eight inhibitor concentration employed ranged from 10 μM to 3 nM (from high to low concentration). Specifically, the eight concentrations used were 10 μM, 3 μM, 1 μM, 300 nM, 100 nM, 30 nM, 10 nM and 3 nM.
Reaction mixtures were neutralized by the addition of 15 μl of tris(hydroxy-methyl)aminomethane (1M, pH 8.0) and then mixed by trituration with 37.5 μl of Microscint™-E (Perkin Elmer). Plates contents were allowed to partition for 15 to 30 min before ^14C was measured in a scintillation spectrometer (Wallac Microbeta Trilux 1450-030 liquid scintillation counter 12 detector in the top-count DPM mode). Percent inhibition of test compounds was computed as […].
Four separate assays were performed using 4 different methods of analysis. The method of analysis of Assay 1 was the same as Assay 4 (described above) except microsomes were utilized at 25 μg/mL instead of 5 μg/mL. […]

pIC50: −log10 of the molar value.

For `Cc1nc(N)c2c(n1)CCN(c1ccc(I)cc1)C2=O` [Example 9Q, 4-amino-6-(4-iodophenyl)-2-methyl-7,8-dihydropyrido[4,3-d]pyrimidin-5(6H)-one], the figures for the pIC50 in experiment [1] and in experiment [2] were 5.30 and 4.86, respectively.
